Data taken from patent US10842772B1, “Cannabis-based bioactive formulations and methods for use thereof” (priority 2016, dated 2020).
Where a name gives a salt, the structure may show the parent alone.

Tests used:
[1] = target: T1, 5-HT1A receptor (Homo sapiens, UniProt P08908); conditions: cited from earlier work
T1 sequence (P08908 1-422): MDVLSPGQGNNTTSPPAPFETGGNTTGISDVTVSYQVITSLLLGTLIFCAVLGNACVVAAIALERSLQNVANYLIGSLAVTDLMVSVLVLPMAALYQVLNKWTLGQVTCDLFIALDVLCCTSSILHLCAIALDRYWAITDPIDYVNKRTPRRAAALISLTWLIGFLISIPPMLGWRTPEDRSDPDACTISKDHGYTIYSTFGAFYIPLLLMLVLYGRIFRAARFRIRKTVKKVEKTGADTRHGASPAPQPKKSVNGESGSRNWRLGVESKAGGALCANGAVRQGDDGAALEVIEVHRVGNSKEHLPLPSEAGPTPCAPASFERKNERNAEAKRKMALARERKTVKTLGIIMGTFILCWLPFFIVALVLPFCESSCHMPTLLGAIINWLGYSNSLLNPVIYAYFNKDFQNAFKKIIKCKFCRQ

[2] = system: CB1 and CB2 receptors; conditions: cited from earlier work
[3] = target: GPR55 (Homo sapiens, UniProt Q9Y2T6); conditions: putative new cannabinoid receptor; cited from earlier work
[4] = system: patients experiencing ADHD-related symptoms or ASD-related symptoms; assay: Example 3: group study, THC versus placebo; assay type: in vivo, human; conditions: THC or Marinol versus placebo; re-evaluation after 2-3 weeks adjustment
Procedure: In patients experiencing ADHD-related symptoms or ASD-related symptoms, obtain baseline measures (using, reports, observations or tests described above) of the symptoms and deficits commonly associated with the conditions. Administer THC, or a synthetic substitute such as Marinol® at a specific dose, to half of the group and administer a placebo to the remainder of the participants. The group that is administered THC should be allowed at least 2-3 weeks to acclimate to THC. After the several week adjustment period, all patients should be re-evaluated using the same or similar tests, observations and reports upon which initial measures of symptoms and deficits were made.

[5] = system: Patient 1 (anxiety, depression, OCD, ADHD-related symptoms); assay: Example 2: treatment of Patient 1 with THC (vaporized, then edible); assay type: in vivo, human
Procedure: Following cessation of efficacy of Zoloft, Patient 1 obtained a prescription for medical marijuana. Patient 1 began by vaporizing marijuana buds and later vaporizing THC wax and oil concentrates.
Patient 1 began consuming THC in edible form at doses ranging from 10-35 mg every 4-6 hours. Initially, Patient 1 consumed 10-20 mg for approximately 1-2 months, and then increased the dose to 30-35 mg. […] Patient 1 used orally consumed THC as a medicament for at least 9 months during which time they observed and recorded the changes in their mood, movements, cognition and behavior while practicing law working, raising children, and otherwise functioning in their daily life. […] Patient 1 continued to use the SSRI Zoloft during approximately the first 2 months of this 9-month period, but thereafter discontinued the use of Zoloft.
Patient 1 reports that symptom relief seems tied to THC's slowing of their perception of time, which results in cascading (positive) effects on their mood, movements, cognition and behavior.

[6] = cited from earlier work
[7] = target: CB2 receptor (Homo sapiens, UniProt P34972); conditions: cited from earlier work
[8] = system: Patient 1 (anxiety, depression, OCD, substance abuse, ADHD); assay: Example 1: treatment of Patient 1 with Zoloft; assay type: in vivo, human
Procedure: Patient 1 was also a regular user of alcohol and a recreational user of cocaine. Patient 1 was prescribed selective serotonin reuptake inhibitor (SSRI) Zoloft, at 25 mg with doses increasing up to 200 mg over the course of approximately 6-8 months. The dose of Zoloft/sertraline used was 25-200 mg.

[9] = THC in edible form 10-35 mg every 4-6 hours

Sequence of GPR55 (Q9Y2T6 whole entry, species assumed): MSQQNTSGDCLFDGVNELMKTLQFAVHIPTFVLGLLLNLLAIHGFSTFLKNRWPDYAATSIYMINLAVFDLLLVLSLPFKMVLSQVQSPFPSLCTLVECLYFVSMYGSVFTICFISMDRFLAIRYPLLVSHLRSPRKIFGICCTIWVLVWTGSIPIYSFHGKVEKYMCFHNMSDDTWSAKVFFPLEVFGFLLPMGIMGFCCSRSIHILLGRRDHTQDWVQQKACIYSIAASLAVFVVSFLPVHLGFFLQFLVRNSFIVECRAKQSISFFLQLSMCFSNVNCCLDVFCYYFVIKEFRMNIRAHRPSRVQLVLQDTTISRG
Sequence of CB2 receptor (P34972 whole entry): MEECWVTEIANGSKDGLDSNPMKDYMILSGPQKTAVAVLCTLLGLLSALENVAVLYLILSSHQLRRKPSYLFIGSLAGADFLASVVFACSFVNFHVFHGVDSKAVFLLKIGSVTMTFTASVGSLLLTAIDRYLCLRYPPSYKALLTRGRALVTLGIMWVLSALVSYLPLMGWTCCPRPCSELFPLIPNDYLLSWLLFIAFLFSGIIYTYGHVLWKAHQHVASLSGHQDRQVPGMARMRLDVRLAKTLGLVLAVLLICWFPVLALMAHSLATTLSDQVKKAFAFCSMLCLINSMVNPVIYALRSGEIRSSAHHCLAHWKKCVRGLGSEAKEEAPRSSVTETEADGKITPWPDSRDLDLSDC

## C=C(C)[C@@H]1CCC(C)=C[C@H]1c1c(O)cc(CCCCC)cc1O [CBD, cannabidiol]
[1]
  activity at 5-HT1A receptor: agonist
[2]
  affinity for CB1 and CB2 receptors: little affinity
  relative affinity for CB1 versus CB2 receptor: greater affinity for the CB2 receptor
[3]
  activity at GPR55: antagonist

## CCCCCc1cc(O)c2c(c1)OC(C)(C)[C@@H]1CCC(C)=C[C@@H]21 [THC, (−)-(6aR,10aR)-6,6,9-trimethyl-3-pentyl-6a,7,8,10a-tetrahydro-6H-benzo[c] chromen-1-ol]
[4]
  symptoms and deficits associated with ASD and ADHD: reduce or eliminate
[5]; [9]
  OCD and ADHD-related symptoms: elimination
  ability to focus and concentrate on reading, writing, and interpersonal interactions: increased ability to focus and concentrate
  anxiety, depression: significant reduction
  perception of time: slowed perception of time
[5]; edible THC, after initial adjustment period of approximately 2 weeks
  side effects: No significant side effects
[5]; orally-consumed THC
  ability to read body language and facial expressions: increase in their ability to read body language and facial expressions
  alcohol and cocaine use: rarely consumed alcohol and stopped using cocaine
  coordination and balance, fine motor skills: improvements in coordination and balance
  interpersonal relationships at home and in the workplace: improvement in interpersonal relationships
  propensity to interrupt while orally communicating: reduced propensity to interrupt
  sensitivity to peripheral noise and other distractions: reduction in sensitivity
  visualizing images described in writings, sense of direction: increased ability to visualize images described in writings and an improved sense of direction
[6]; Absorption
  peak plasma time: 0.5 to 4 h
[6]; Distribution
  protein bound: 90-99%
[6]; Elimination
  excretion: feces: 50%
  excretion: urine: 15%
  half-life, parent drug: 25 to 36 h
  renal clearance: 18 to 20 mL/min
  total body clearance: 3.3 mL/min/kg
[6]; in vivo
  Metabolism: extensive first-pass hepatic metabolism
[2]
  relative affinity for CB1 versus CB2 receptor: approximately equal affinity
[7]
  activity at CB2 receptor: partial agonist

## CN[C@H]1CC[C@@H](c2ccc(Cl)c(Cl)c2)c2ccccc21 [Zoloft, sertraline HCl]
[8]; 25 mg increasing up to 200 mg over 6-8 months, at initial dose and each incremental increase
  treating anxiety, depression, OCD, substance abuse and ADHD: initially effective
[8]; 25-200 mg, after dosage increases
  persistence of effects: effects wore off at varying intervals
